Laboratory results reported in US12544444B2, “Administration of tailored feedstock to increase antibiotic susceptibility” (U.S. Government, as represented by the Sec. of Army, c/o …, priority 2018, dated 2026).

Tested on: Clostridium acetobutylicum
Experiment: antibiotic sensitivity test (OD600 after 24 hours in 96-well plate, anaerobic)
Assay type: cell-based, Clostridium acetobutylicum strain ATCC 824
Conditions: C. acetobutylicum given oxidized feedstock compared to glucose as feedstock; FIG. 2, after 24 hours
Experimental: Bacterial culture conditions and strains have been previously published. All strains and cultures were maintained or grown in an atmosphere of 5.0% H2, 5.0% CO2, and 90.0% N2. Clostridium acetobutylicum strain ATCC 824 was obtained from ATCC and cultured using company protocol at 37° C. into Clostridial growth medium or CGM containing 0.75 g KH2PO4, 0.75 g K2HPO4, 1.0 g NaCl, 0.017 g MnSO4.5H2O, 0.70 g MgSO4.7H2O, 0.01 g FeSO4.7H2O, 2.0 g 1-asparagine, 5.0 g yeast extract, 2.0 g (NH4)2SO4, and 0.5% final concentration of desired carbohydrate—D-glucose, D-galacturonic acid, D-gluconic acid—at pH 6.5. Active cultures from initial growth stock were added to potato glucose medium to be maintained and stored as a spore solution. Potato glucose medium or PGM contains per liter of H2O—150 g grated fresh potato, 10 g D-glucose, 0.5 g (NH4)SO4, and 3 g CaCO3. The medium was boiled for 1 hour and strained through gauze before sterilization and use for culture. […]
The protocol for antibiotic sensitivity test was performed as follows in anaerobic conditions: 200 μL of CGM medium containing either 0.5% D-galacturonate or D-glucose was aliquoted into a sterile Costar® 96-well polystyrene flat bottom plate in triplicate per test condition. […] The optical density of the cultures in the wells were measured at 600 nm via a commercially available plate reader.

Cc1ncc([N+](=O)[O-])n1CCO [metronidazole]
antibiotic (metronidazole) susceptibility increase: at least two-fold
